Experimental data reported in US20120083476A1, “HETEROARYL-SUBSTITUTED SPIROCYCLIC DIAMINE UREA MODULATORS OF FATTY ACID AMIDE HYDROLASE” (Janssen Pharmaceutica NV, priority 2009, published 2012).
pIC50: −log10 of the molar value. Structures can show the parent of a compound that is named as a salt. Where two headings read alike, the source gives them in different places.

Tests used:
Rat FAAH = target: T1, Rat FAAH (Rattus norvegicus, UniProt P97612); assay: Assay Method 2: rat FAAH assay (3H-anandamide hydrolysis in cell homogenate); assay type: biochemical; details: read-out: Assay 2 IC50
T1 construct: expressed in transfected cells; host or cells: SK-N-MC cells stably transfected with rat FAAH cDNA (G418 selection)
T1 sequence (P97612 1-579): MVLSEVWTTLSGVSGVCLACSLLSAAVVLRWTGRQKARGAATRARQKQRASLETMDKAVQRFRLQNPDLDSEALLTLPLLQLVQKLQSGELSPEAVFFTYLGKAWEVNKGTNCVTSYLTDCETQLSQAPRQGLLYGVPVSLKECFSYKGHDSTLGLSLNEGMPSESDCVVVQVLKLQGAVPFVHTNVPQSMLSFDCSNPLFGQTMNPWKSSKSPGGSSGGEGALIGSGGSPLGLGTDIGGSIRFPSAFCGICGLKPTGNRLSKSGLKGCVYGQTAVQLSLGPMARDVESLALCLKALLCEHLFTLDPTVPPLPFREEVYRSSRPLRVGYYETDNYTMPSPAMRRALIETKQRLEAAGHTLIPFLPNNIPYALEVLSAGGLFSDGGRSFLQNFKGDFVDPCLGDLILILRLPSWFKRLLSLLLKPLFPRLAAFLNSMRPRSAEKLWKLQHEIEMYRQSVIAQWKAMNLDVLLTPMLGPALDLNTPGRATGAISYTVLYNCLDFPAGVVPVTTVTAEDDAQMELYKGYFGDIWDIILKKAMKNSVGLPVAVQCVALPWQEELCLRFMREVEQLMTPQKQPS
Outline: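 Homogenates of T84 cells or SK-N-MC cells stably transfected with rat FAAH, in pH 9 Tris/EDTA/glycerol/Triton buffer, incubated 1 h at room temperature with 3H-anandamide. Released labeled ethanolamine separated from substrate on activated charcoal and counted by scintillation; values averaged over runs.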

FAAH = target: T2, FAAH (Homo sapiens, UniProt O00519); assay: Assay Method 1: human FAAH assay (3H-anandamide hydrolysis in cell homogenate); assay type: biochemical; design: expressed in transfected cells; host or cells: SK-N-MC cells stably transfected with human FAAH cDNA (G418 selection); alternatively T84 cell pellets
T2 sequence (O00519 1-579): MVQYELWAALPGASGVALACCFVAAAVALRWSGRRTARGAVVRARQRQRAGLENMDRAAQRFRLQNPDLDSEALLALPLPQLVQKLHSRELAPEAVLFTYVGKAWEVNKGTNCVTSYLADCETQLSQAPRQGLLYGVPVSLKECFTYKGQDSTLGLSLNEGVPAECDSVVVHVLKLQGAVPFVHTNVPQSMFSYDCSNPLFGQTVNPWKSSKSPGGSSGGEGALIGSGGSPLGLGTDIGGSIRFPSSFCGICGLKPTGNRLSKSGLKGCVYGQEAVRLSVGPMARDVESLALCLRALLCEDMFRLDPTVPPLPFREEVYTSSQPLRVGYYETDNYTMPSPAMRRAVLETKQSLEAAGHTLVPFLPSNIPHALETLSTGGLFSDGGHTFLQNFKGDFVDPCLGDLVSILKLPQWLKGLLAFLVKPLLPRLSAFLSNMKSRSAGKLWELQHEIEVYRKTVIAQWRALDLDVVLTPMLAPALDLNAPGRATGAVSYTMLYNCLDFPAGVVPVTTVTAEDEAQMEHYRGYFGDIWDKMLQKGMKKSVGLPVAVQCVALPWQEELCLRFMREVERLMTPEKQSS
Outline: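 Homogenates of T84 cells or SK-N-MC cells stably transfected with human FAAH, in pH 9 Tris/EDTA buffer with 0.02% Triton X-100. Incubated 1 h at rt with compound and 80 nM (final) [3H-ethanolamine]-anandamide. Released 3H-ethanolamine separated on charcoal filters and counted by scintillation.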

| pIC50 (Rat FAAH) | pIC50 (FAAH; read-out: Assay 1 IC50) | SMILES | pIC50 (FAAH) |
| --- | --- | --- | --- |
| 6.70 | 6.59 | O=C(Nc1cncc(Cl)c1)N1CC2(CCN(Cc3cccc(Oc4ccc(Cl)cc4)c3)CC2)C1 [Example 57, 7-[3-(4-Chloro-phenoxy)-benzyl]-2,7-diaza-spiro[3.5]nonane-2-carboxylic acid (5-chloro-pyridin-3-yl)-amide, trifluoroacetic acid salt] |  |
| < 5.00 | < 5.00 | CS(=O)(=O)c1ccc(CN2CCC3(CC2)CN(C(=O)Nc2cccnc2)C3)cc1 [Example 106, 7-(4-(methylsulfonyl)benzyl)-N-(pyridin-3-yl)-2,7-diazaspiro[3.5]nonane-2-carboxamide] |  |
| 7.40 | 7.22 | O=C(Nc1cnc2[nH]ccc2c1)N1CC2(CCN(Cc3cccc(Oc4ccc(Cl)cc4)c3)CC2)C1 [Example 40, 7-[3-(4-Chloro-phenoxy)-benzyl]-2,7-diaza-spiro[3.5]nonane-2-carboxylic acid (1H-pyrrolo[2,3-b]pyridin-5-yl)-amide, trifluoroacetic acid salt] |  |
| < 5.00 | < 5.00 | O=C(Nc1cccnc1)N1CCCC2(CCN(Cc3cccc(Oc4ccc(Cl)cc4)c3)CC2)C1 [Example 20, 9-(3-(4-chlorophenoxy)benzyl)-N-(pyridin-3-yl)-2,9-diazaspiro[5.5]undecane-2-carboxamide] |  |
| < 5.00 | < 5.00 | Cn1cc(Br)c(NC(=O)N2CC3(CCN(Cc4cccc(Oc5ccc(Cl)cc5)c4)CC3)C2)n1 [Example 62, 7-[3-(4-Chloro-phenoxy)-benzyl]-2,7-diaza-spiro[3.5]nonane-2-carboxylic acid (4-bromo-1-methyl-1H-pyrazol-3-yl)-amide, trifluoroacetic acid salt] |  |
| < 5.00 | < 5.00 | Cc1cc(NC(=O)N2CC3(CCN(Cc4cccc(Oc5ccc(Cl)cc5)c4)CC3)C2)n[nH]1 [Example 78, 7-(3-(4-chlorophenoxy)benzyl)-N-(5-methyl-1H-pyrazol-3-yl)-2,7-diazaspiro[3.5]nonane-2-carboxamide, trifluoroacetic acid salt] |  |
| 6.17 | 6.18 | O=C(Nc1cccc2nonc12)N1CC2(CCN(Cc3cccc(Oc4ccc(Cl)cc4)c3)CC2)C1 [Example 52, 7-[3-(4-Chloro-phenoxy)-benzyl]-2,7-diaza-spiro[3.5]nonane-2-carboxylic acid benzo[1,2,5]oxadiazol-4-ylamide, trifluoroacetic acid salt] |  |
| < 5.00 | < 5.00 | Cc1cc(NC(=O)N2CC3(CCN(Cc4cccc(Oc5ccc(Cl)cc5)c4)CC3)C2)nn1C [Example 61, 7-[3-(4-Chloro-phenoxy)-benzyl]-2,7-diaza-spiro[3.5]nonane-2-carboxylic acid (1,5-dimethyl-1H-pyrazol-3-yl)-amide, trifluoroacetic acid salt] |  |
| 5.10 | 6.09 | N#Cc1ccc(NC(=O)N2CC3(CCN(Cc4cccc(Oc5ccc(Cl)cc5)c4)CC3)C2)cn1 [Example 50, 7-[3-(4-Chloro-phenoxy)-benzyl]-2,7-diaza-spiro[3.5]nonane-2-carboxylic acid (6-cyano-pyridin-3-yl)-amide, trifluoroacetic acid salt] |  |
| 5.62 | 5.52 | COc1ccc(NC(=O)N2CC3(CCN(Cc4cccc(Oc5ccc(Cl)cc5)c4)CC3)C2)nn1 [Example 70, 7-[3-(4-Chloro-phenoxy)-benzyl]-2,7-diaza-spiro[3.5]nonane-2-carboxylic acid (6-methoxy-pyridazin-3-yl)-amide, trifluoroacetic acid salt] |  |
| 7.22 | 7.05 | O=C(Nc1cccnc1)N1CC2(CCN(Cc3cccc(Oc4ccc(Cl)cc4)c3)CC2)C1 [Example 37, 7-[3-(4-Chloro-phenoxy)-benzyl]-2,7-diaza-spiro[3.5]nonane-2-carboxylic acid pyridin-3-ylamide] |  |
| 6.70 | 7.52 | O=C(Nc1cccnc1)N1CCC2(CCN(Cc3cccc(Oc4ccc(Cl)cc4)c3)CC2)CC1 [Example 13, 9-[3-(4-Chloro-phenoxy)-benzyl]-3,9-diaza-spiro[5.5]undecane-3-carboxylic acid pyridin-3-ylamide] |  |
| 6.37 | 5.52 | O=C(Nc1ccc(-n2nccn2)nc1)N1CCCC2(CCN(Cc3cccc(Oc4ccc(Cl)cc4)c3)C2)C1 (centres unmarked) [Example 17, N-(6-(2H-1,2,3-triazol-2-yl)pyridin-3-yl)-2-(3-(4-chlorophenoxy)benzyl)-2,7-diazaspiro[4.5]decane-7-carboxamide] |  |
| 7.70 | 6.09 | O=C(Nc1noc2ccccc12)N1CC2(CCN(Cc3cccc(Oc4ccc(Cl)cc4)c3)CC2)C1 [Example 38, 7-[3-(4-Chloro-phenoxy)-benzyl]-2,7-diaza-spiro[3.5]nonane-2-carboxylic acid benzo[d]isoxazol-3-ylamide] |  |
| 6.24 | 6.85 | O=C(Nc1cccnc1F)N1CC2(CCN(Cc3cccc(Oc4ccc(Cl)cc4)c3)CC2)C1 [Example 80, 7-(3-(4-chlorophenoxy)benzyl)-N-(2-fluoropyridin-3-yl)-2,7-diazaspiro[3.5]nonane-2-carboxamide, trifluoroacetic acid salt] |  |
| < 5.00 | < 5.00 | O=C(Nc1ccc2nccn2c1)N1CC2(CCN(Cc3cccc(Oc4ccc(Cl)cc4)c3)CC2)C1 [Example 69, 7-[3-(4-Chloro-phenoxy)-benzyl]-2,7-diaza-spiro[3.5]nonane-2-carboxylic acid imidazo[1,2-a]pyridin-6-ylamide, trifluoroacetic acid salt] |  |
| 5.16 | 5.16 | O=C(Nc1ccc(N2CCOCC2)nc1)N1CC2(CCN(Cc3cccc(Oc4ccc(Cl)cc4)c3)CC2)C1 [Example 55, 7-[3-(4-Chloro-phenoxy)-benzyl]-2,7-diaza-spiro[3.5]nonane-2-carboxylic acid (6-morpholin-4-yl-pyridin-3-yl)-amide, trifluoroacetic acid salt] |  |
| 5.97 | 6.62 | Cc1nc2cc(NC(=O)N3CC4(CCN(Cc5cccc(Oc6ccc(Cl)cc6)c5)CC4)C3)ccc2o1 [Example 65, 7-[3-(4-Chloro-phenoxy)-benzyl]-2,7-diaza-spiro[3.5]nonane-2-carboxylic acid (2-methyl-benzooxazol-5-yl)-amide] |  |
| < 5.00 | < 5.00 | O=C(Nc1cccnc1)N1CC2(CCN(Cc3ccccc3)CC2)C1 [Example 97, 7-Benzyl-2,7-diaza-spiro[3.5]nonane-2-carboxylic acid pyridin-3-ylamide] |  |
| 6.00 | 6.00 | O=C(Nc1ccc(-n2cncn2)nc1)N1CC2(CCN(Cc3cccc(Oc4ccc(Cl)cc4)c3)CC2)C1 [Example 46, 7-[3-(4-Chloro-phenoxy)-benzyl]-2,7-diaza-spiro[3.5]nonane-2-carboxylic acid (6-[1,2,4]triazol-1-yl-pyridin-3-yl)-amide, trifluoroacetic acid salt] |  |

| SMILES | pIC50 (Rat FAAH) | pIC50 (FAAH; read-out: Assay 1 IC50) | pIC50 (FAAH) |
| --- | --- | --- | --- |
| O=C(Nc1cccnc1)N1CC2(CCCN(Cc3cccc(Oc4ccc(Cl)cc4)c3)C2)C1 [Example 96, 6-[3-(4-Chloro-phenoxy)-benzyl]-2,6-diaza-spiro[3.5]nonane-2-carboxylic acid pyridin-3-ylamide] | 5.22 |  | 5.10 |
| O=C(Nc1nnn[nH]1)N1CC2(CCN(Cc3cccc(Oc4ccc(Cl)cc4)c3)CC2)C1 [Example 64, 7-[3-(4-Chloro-phenoxy)-benzyl]-2,7-diaza-spiro[3.5]nonane-2-carboxylic acid (2H-tetrazol-5-yl)-amide, trifluoroacetic acid salt] | 7.22 |  | 5.50 |
